Experimental data as given in patent US20200317636A1, “DEUTERATED AZOLE COMPOUNDS AND PREPARATION METHOD THEREFOR AND USES THEREOF” (priority 2017, published 2020).
Converted amounts (≈) assume the structure as drawn. Read-outs that look alike come from different tables or passages of the source.

Experiments:
[1] = tested on: Candida albicans (standard strain SC5314); test: In vitro bacteriostatic experiment (minimum in vitro antifungal concentration, MIC80); format: cell-based
Description: (I) Experimental method: The conventional in vitro bacteriostatic experiment method was adopted (for details, see: Antimicrob Agents Chemother 1995, 39 (5): 1169).
The fungal strain selected for this experiment was provided by the Fungal Department of Shanghai Changzheng Hospital (or purchased from the Institute of Materia Medica, Chinese Academy of Sciences).
Candida albicans (standard strain SC5314)
Preparation of bacterial suspension: The above fungi were cultured in YEPD liquid medium at 35° C. for 16 hours, activated twice, counted with a blood cell counting plate, and the bacteria concentration was adjusted to 1*10^4 to 1*10^5 cells/mL with RPM1640 liquid medium.
Preparation of drug solution: The test compound of the invention was dissolved in dimethyl sulfoxide to prepare a 0.8 mg/mL drug storage solution, and the 0.8 mg/mL drug storage solution was diluted to 8 μg/mL with RPM1640 before the experiment.
Inoculation: RPM1640 100 μL was added as a blank control in well 1 of the 96-well plate; 100 μL of the bacterial suspension was added in each of wells 3-12, 200 μL of the bacterial suspension and 2 μL of the drug solution were added in well 2 and the drug solution in wells 2-11 was diluted […], and the drug concentrations of these wells were 8, 4, 2, 1, 0.5, 0.25, 0.125, 0.0625, 0.0313, and 0.0156 μg/mL, respectively. No drug solution was added in well 12 to make positive control. The drug control was fluconazole.

in vitro = conditions: human, microsomes
[2] = human, microsomes
[3] = Candida albicans, SC5314, read-out: Minimum in vitro antifungal concentration (MIC80)

## [2H]c1nnnn1CC(O)(c1ccc(F)cc1F)C(F)(F)c1ccc(C#Cc2ccc(OCc3ccc(C#N)cc3)cc2)cn1 (stereo not drawn) [Compound D5]
[1]; [3]
  MIC80: 0.0156 µg/mL (≈ 0.0266 µM)

## Cc1ncc2n1-c1ccc(Cl)cc1C(c1ccccc1F)=NC2 [Midazolam]
In vitro
  half-life: 0.212 h
[2]
  CLint, microsome (in vitro intrinsic clearance): 274 μL × min^−1 × mg^−1 proteins
  k (clearance constant): 0.0548 min⁻¹

## [2H]C([2H])(n1cnnn1)C(O)(c1ccc(F)cc1F)C(F)(F)c1ccc(C#Cc2ccc(OCc3ccc(C#N)cc3)cc2)cn1 (stereo not drawn) [Compound D3]
[1]; [3]
  MIC80: 0.0313 µg/mL (≈ 0.0534 µM)

## [2H]C([2H])(Oc1ccc(C#Cc2ccc(C(F)(F)[C@](O)(Cn3cnnn3)c3ccc(F)cc3F)nc2)cc1)c1ccc(C#N)cc1 [Compound D2]
[1]; [3]
  MIC80: 0.0156 µg/mL (≈ 0.0266 µM)

## OC(Cn1cncn1)(Cn1cncn1)c1ccc(F)cc1F [Fluconazole]
[1]; Candida albicans SC5314, RPM1640 medium, 96-well dilution 8-0.0156 μg/mL, read-out: Minimum in vitro antifungal concentration (MIC80)
  MIC80: 0.5 µg/mL (≈ 1.63 µM)

## N#Cc1ccc(COc2ccc(C#Cc3ccc(C(F)(F)[C@](O)(Cn4cnnn4)c4ccc(F)cc4F)nc3)cc2)cc1 [VT-1598]
In vitro
  half-life at 1 μM: 2.33 h
[2]
  CLint, microsome (in vitro intrinsic clearance): 10.6 μL × min^−1 × mg^−1 proteins
  k (clearance constant): 0.0053 min⁻¹
[1]; [3]
  MIC80: 0.0156 µg/mL (≈ 0.0267 µM)

## [2H]C(Oc1ccc(C#Cc2ccc(C(F)(F)[C@](O)(Cn3cnnn3)c3ccc(F)cc3F)nc2)cc1)c1ccc(C#N)cc1 (stereo partly drawn) [Compound D1]
[1]; [3]
  MIC80: 0.0156 µg/mL (≈ 0.0266 µM)
